Tests used:
[1] = system: late watergrass; experiment: Test Example 1: herbicidal activity, application before weed generation under submerged conditions (Table 16, symbol A); format: in vivo, late watergrass (Echinochloa oryzicola); settings: amount of applied herbicide 320 g/ha
In short: (§1)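 Alluvial soil was flooded to 4 cm depth, weed seeds were sown mixed and 2.5-leaf rice seedlings were transplanted. On sowing day, the compound's emulsion, diluted in water to a set dose, was applied to the water surface. Plants grew at 25–30 °C and were scored 0–5 after three weeks.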

[2] = system: Japanese bulrush; experiment: Test Example 1: herbicidal activity, application before weed generation under submerged conditions (Table 16, symbol B); format: in vivo, Japanese bulrush (Schoenoplectus juncoides); settings: amount of applied herbicide 320 g/ha
In short: as §1

[3] = system: oval-leafed pondweed; experiment: Test Example 1: herbicidal activity, application before weed generation under submerged conditions (Table 16, symbol C); format: in vivo, oval-leafed pondweed (Monochoria vaginalis); settings: amount of applied herbicide 320 g/ha
In short: as §1

[4] = system: barnyard grass; experiment: Test Example 3: herbicidal effect by foliage application, Wagner pot (Table 18, symbol H); format: in vivo, barnyard grass (Echinochloa crus-galli); settings: 320 g/ha
In short: (§2)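 Plants were sown in alluvial soil held under 0.1–0.5 cm standing water and grown 14 days in a greenhouse at 25–30 °C. An emulsifiable formulation, water-diluted to the set dose, was then sprayed onto the foliage, and effects were scored three weeks later using previously defined criteria.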

[5] = system: Chinese sprangletop; experiment: Test Example 3: herbicidal effect by foliage application, Wagner pot (Table 18, symbol D); format: in vivo, chinese sprangletop (Leptochloa chinensis); settings: 320 g/ha
In short: as §2

[6] = system: rice flat sedge; experiment: Test Example 3: herbicidal effect by foliage application, Wagner pot (Table 18, symbol E); format: in vivo, rice flat sedge (Cyperus iria); settings: 320 g/ha
In short: as §2

[7] = system: southern crabgrass; experiment: Test Example 4: herbicidal effect by soil treatment (Table 19, symbol F); format: in vivo, southern crabgrass (Digitaria ciliaris); settings: amount of applied herbicide 320 g/ha
In short: (§3)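 Three weeks of greenhouse growth at 25° C. to 30° C. followed a uniform surface spray of water-diluted emulsion at a predetermined herbicide amount. Seeds had been sown beforehand under about 1.5 cm of sterilized diluvial soil. Grading followed criteria set out in an earlier test.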

[8] = system: green foxtail; experiment: Test Example 4: herbicidal effect by soil treatment (Table 19, symbol G); format: in vivo, green foxtail (Setaria viridis); settings: amount of applied herbicide 320 g/ha
In short: as §3

[9] = system: barnyard grass; experiment: Test Example 4: herbicidal effect by soil treatment (Table 19, symbol H); format: in vivo, barnyard grass (Echinochloa crus-galli); settings: amount of applied herbicide 320 g/ha
In short: as §3

[10] = system: wild oat; experiment: Test Example 4: herbicidal effect by soil treatment (Table 19, symbol I); format: in vivo, wild oat (Avena fatua); settings: amount of applied herbicide 320 g/ha
In short: as §3

[11] = system: blackgrass; experiment: Test Example 4: herbicidal effect by soil treatment (Table 19, symbol J); format: in vivo, blackgrass (Alopecurus myosuroides); settings: amount of applied herbicide 320 g/ha
In short: as §3

[12] = system: Italian ryegrass; experiment: Test Example 4: herbicidal effect by soil treatment (Table 19, symbol K); format: in vivo, Italian ryegrass (Lolium multiflorum); settings: amount of applied herbicide 320 g/ha
In short: as §3

[13] = system: windgrass; experiment: Test Example 4: herbicidal effect by soil treatment (Table 19, symbol L); format: in vivo, windgrass (Apera spica-venti); settings: amount of applied herbicide 320 g/ha
In short: as §3

[14] = system: velvetleaf; experiment: Test Example 4: herbicidal effect by soil treatment (Table 19, symbol M); format: in vivo, velvetleaf (Abutilon theophrasti); settings: amount of applied herbicide 320 g/ha
In short: as §3

[15] = system: redroot pigweed; experiment: Test Example 4: herbicidal effect by soil treatment (Table 19, symbol N); format: in vivo, redroot pigweed (Amaranthus retroflexus); settings: amount of applied herbicide 320 g/ha
In short: as §3

[16] = system: lambsquarters; experiment: Test Example 4: herbicidal effect by soil treatment (Table 19, symbol O); format: in vivo, lambsquarters (Chenopodium album); settings: amount of applied herbicide 320 g/ha
In short: as §3

[17] = system: chickweed; experiment: Test Example 4: herbicidal effect by soil treatment (Table 19, symbol P); format: in vivo, common chickweed (Stellaria media); settings: amount of applied herbicide 320 g/ha
In short: as §3

[18] = system: persian speedwell; experiment: Test Example 4: herbicidal effect by soil treatment (Table 19, symbol R); format: in vivo, Persian speedwell (Veronica persica); settings: amount of applied herbicide 320 g/ha
In short: as §3

[19] = system: southern crabgrass; experiment: Test Example 5: herbicidal effect by foliage application, plastic box (Table 20, symbol F); format: in vivo, southern crabgrass (Digitaria ciliaris); settings: amount of applied herbicide 320 g/ha; foliage application after 14-day growth; evaluated three weeks after application
In short: (§4)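 Plants sown in sterilized diluvial soil and grown 14 days in a greenhouse at 25° C to 30° C, then sprayed on the foliage with the compound's emulsion diluted in water to a predetermined herbicide amount. Injury to weeds and crops scored three weeks after application on a visual rating scale.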

[20] = system: green foxtail; experiment: Test Example 5: herbicidal effect by foliage application, plastic box (Table 20, symbol G); format: in vivo, green foxtail (Setaria viridis); settings: amount of applied herbicide 320 g/ha; foliage application after 14-day growth; evaluated three weeks after application
In short: as §4

[21] = system: barnyard grass; experiment: Test Example 5: herbicidal effect by foliage application, plastic box (Table 20, symbol H); format: in vivo, barnyard grass (Echinochloa crus-galli); settings: amount of applied herbicide 320 g/ha; foliage application after 14-day growth; evaluated three weeks after application
In short: as §4

[22] = system: wild oat; experiment: Test Example 5: herbicidal effect by foliage application, plastic box (Table 20, symbol I); format: in vivo, wild oat (Avena fatua); settings: amount of applied herbicide 320 g/ha; foliage application after 14-day growth; evaluated three weeks after application
In short: as §4

[23] = system: blackgrass; experiment: Test Example 5: herbicidal effect by foliage application, plastic box (Table 20, symbol J); format: in vivo, blackgrass (Alopecurus myosuroides); settings: amount of applied herbicide 320 g/ha; foliage application after 14-day growth; evaluated three weeks after application
In short: as §4

[24] = system: Italian ryegrass; experiment: Test Example 5: herbicidal effect by foliage application, plastic box (Table 20, symbol K); format: in vivo, Italian ryegrass (Lolium multiflorum); settings: amount of applied herbicide 320 g/ha; foliage application after 14-day growth; evaluated three weeks after application
In short: as §4

[25] = system: windgrass; experiment: Test Example 5: herbicidal effect by foliage application, plastic box (Table 20, symbol L); format: in vivo, windgrass (Apera spica-venti); settings: amount of applied herbicide 320 g/ha; foliage application after 14-day growth; evaluated three weeks after application
In short: as §4

[26] = system: velvetleaf; experiment: Test Example 5: herbicidal effect by foliage application, plastic box (Table 20, symbol M); format: in vivo, velvetleaf (Abutilon theophrasti); settings: amount of applied herbicide 320 g/ha; foliage application after 14-day growth; evaluated three weeks after application
In short: as §4

[27] = system: redroot pigweed; experiment: Test Example 5: herbicidal effect by foliage application, plastic box (Table 20, symbol N); format: in vivo, redroot pigweed (Amaranthus retroflexus); settings: amount of applied herbicide 320 g/ha; foliage application after 14-day growth; evaluated three weeks after application
In short: as §4

[28] = system: lambsquarters; experiment: Test Example 5: herbicidal effect by foliage application, plastic box (Table 20, symbol O); format: in vivo, lambsquarters (Chenopodium album); settings: amount of applied herbicide 320 g/ha; foliage application after 14-day growth; evaluated three weeks after application
In short: as §4

[29] = system: chickweed; experiment: Test Example 5: herbicidal effect by foliage application, plastic box (Table 20, symbol P); format: in vivo, common chickweed (Stellaria media); settings: amount of applied herbicide 320 g/ha; foliage application after 14-day growth; evaluated three weeks after application
In short: as §4

[30] = system: persian speedwell; experiment: Test Example 5: herbicidal effect by foliage application, plastic box (Table 20, symbol R); format: in vivo, Persian speedwell (Veronica persica); settings: amount of applied herbicide 320 g/ha; foliage application after 14-day growth; evaluated three weeks after application
In short: as §4

## CSc1ccc(-c2sc3c(C)cccc3c2-c2c(O)c(C)nn(C)c2=O)cc1 [4-118]
[1]
  Herbicidal effect, A: late watergrass: 3 (Herbicidal rate of 40% or more and less than 70%)
[2]
  Herbicidal effect, B: Japanese bulrush: 2 (Herbicidal rate of 20% or more and less than 40%)
[3]
  Herbicidal effect, C: oval-leafed pondweed: 2 (Herbicidal rate of 20% or more and less than 40%)
[4]
  herbicidal effect on barnyard grass (H): 4 (Herbicidal rate of 70% or more and less than 90%)
[5]
  herbicidal effect on Chinese sprangletop (D): 3 (Herbicidal rate of 40% or more and less than 70%)
[6]
  herbicidal effect on rice flat sedge (E): 4 (Herbicidal rate of 70% or more and less than 90%)
[7]
  Herbicidal effect by soil treatment, F: southern crabgrass: 0 (Herbicidal rate of 5% or less (almost no effect))
[8]
  Herbicidal effect by soil treatment, G: green foxtail: 0 (Herbicidal rate of 5% or less (almost no effect))
[9]
  Herbicidal effect by soil treatment, H: barnyard grass: 0 (Herbicidal rate of 5% or less (almost no effect))
[10]
  Herbicidal effect by soil treatment, I: wild oat: 0 (Herbicidal rate of 5% or less (almost no effect))
[11]
  Herbicidal effect by soil treatment, J: blackgrass: 0 (Herbicidal rate of 5% or less (almost no effect))
[12]
  Herbicidal effect by soil treatment, K: Italian ryegrass: 5 (Herbicidal rate of 90% or more (almost completely withered))
[13]
  Herbicidal effect by soil treatment, L: windgrass: 0 (Herbicidal rate of 5% or less (almost no effect))
[14]
  Herbicidal effect by soil treatment, M: velvetleaf: 3 (Herbicidal rate of 40% or more and less than 70%)
[15]
  Herbicidal effect by soil treatment, N: redroot pigweed: 5 (Herbicidal rate of 90% or more (almost completely withered))
[16]
  Herbicidal effect by soil treatment, O: lambsquarters: 5 (Herbicidal rate of 90% or more (almost completely withered))
[17]
  Herbicidal effect by soil treatment, P: chickweed: 4 (Herbicidal rate of 70% or more and less than 90%)
[18]
  Herbicidal effect by soil treatment, R: persian speedwell: 4 (Herbicidal rate of 70% or more and less than 90%)
[19]
  Herbicidal effect by foliage application, F: southern crabgrass: 3 (Herbicidal rate of 40% or more and less than 70%)
[20]
  Herbicidal effect by foliage application, G: green foxtail: 3 (Herbicidal rate of 40% or more and less than 70%)
[21]
  Herbicidal effect by foliage application, H: barnyard grass: 3 (Herbicidal rate of 40% or more and less than 70%)
[22]
  Herbicidal effect by foliage application, I: wild oat: 3 (Herbicidal rate of 40% or more and less than 70%)
[23]
  Herbicidal effect by foliage application, J: blackgrass: 5 (Herbicidal rate of 90% or more (almost completely withered))
[24]
  Herbicidal effect by foliage application, K: Italian ryegrass: 5 (Herbicidal rate of 90% or more (almost completely withered))
[25]
  Herbicidal effect by foliage application, L: windgrass: 5 (Herbicidal rate of 90% or more (almost completely withered))
[26]
  Herbicidal effect by foliage application, M: velvetleaf: 5 (Herbicidal rate of 90% or more (almost completely withered))
[27]
  Herbicidal effect by foliage application, N: redroot pigweed: 5 (Herbicidal rate of 90% or more (almost completely withered))
[28]
  Herbicidal effect by foliage application, O: lambsquarters: 5 (Herbicidal rate of 90% or more (almost completely withered))
[29]
  Herbicidal effect by foliage application, P: chickweed: 5 (Herbicidal rate of 90% or more (almost completely withered))
[30]
  Herbicidal effect by foliage application, R: persian speedwell: 5 (Herbicidal rate of 90% or more (almost completely withered))

Source: patent US20230085307A1, “PYRIDAZINONE COMPOUND AND HERBICIDE” (NISSAN CHEMICAL CORPORATION, priority 2019, published 2023)
